Assay results from US4267192A, “Method for treating inflammation” (priority 1980, dated 1981).
Like-named read-outs stand apart in the source and are kept apart here.

Tests used:
[1] = test system: carrageenan-induced edema in the hind paw of normal and adrenalectomized rats; assay: carrageenan paw edema in normal and adrenalectomized rats; format: in vivo, rat
Protocol: (§1) Vehicle alone is administered as a control. Sixty minutes after drug administration edema is induced by an injection of 0.1 ml. of a 1% carrageenan solution is saline into the subplantar tissue of the rat's right hind paw. Two minutes later, paw volume is measured volumetrically with a plethysmograph and again 3 hours later. The mean volume of swelling for the control group is calculated and compared to the test groups. Percent change in paw edema is calculated and analyzed statistically (unpaired, Student's t-test).
Normal rats received the same doses as adrenalectomized rats.

[2] = test system: carrageenan-induced edema in the hind paw of the rat; assay: rat carrageenan edema test (hind paw); format: in vivo, rat (male Sprague-Dawley); conditions: for Change in paw volume (ml) from 0-3 hr: mean ± S.E.; for % Change in paw edema: vs control
Protocol: as §1

prostaglandin synthetase = target: T1, prostaglandin synthetase (Ovis aries, UniProt P05979); conditions: in words; cited from earlier work
T1 sequence (P05979 25-600): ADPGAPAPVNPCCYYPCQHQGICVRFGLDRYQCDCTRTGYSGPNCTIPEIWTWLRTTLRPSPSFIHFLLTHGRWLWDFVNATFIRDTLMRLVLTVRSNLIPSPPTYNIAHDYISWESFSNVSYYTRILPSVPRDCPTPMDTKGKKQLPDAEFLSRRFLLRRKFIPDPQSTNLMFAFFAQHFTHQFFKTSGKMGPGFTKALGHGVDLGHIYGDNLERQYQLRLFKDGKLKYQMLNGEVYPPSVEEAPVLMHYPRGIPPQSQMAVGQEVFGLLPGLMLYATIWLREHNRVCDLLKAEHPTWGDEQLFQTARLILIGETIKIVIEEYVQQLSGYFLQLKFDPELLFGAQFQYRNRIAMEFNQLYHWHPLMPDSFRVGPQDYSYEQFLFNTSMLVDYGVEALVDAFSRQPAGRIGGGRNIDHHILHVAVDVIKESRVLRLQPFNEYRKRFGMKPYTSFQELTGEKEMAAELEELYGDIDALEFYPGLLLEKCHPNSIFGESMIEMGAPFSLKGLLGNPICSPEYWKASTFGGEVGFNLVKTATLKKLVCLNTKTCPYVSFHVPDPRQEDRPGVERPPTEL

[3] = test system: rat stomach (gastric ulcers, gastric swelling); conditions: especially in long-term therapy; in words; cited from earlier work
[4] = test system: polyarthritis induced by Mycobacterium butyricum or tuberculosis in rats; conditions: rat; cited from earlier work
[5] = test system: established adjuvant arthritis in rats; assay: established adjuvant arthritis, dosing on days 16, 17 and 18; conditions: rat
Protocol: (§2) Polyarthritis is induced in groups of 6-10 Sprague-Dawley rats weighing between 180-220 g. by a subcutaneous injection into the right paw of dessicated Mycobacterium butyricum or tuberculosis (0.5 mg/0.1 ml.) suspended in light mineral oil. […] Both hind paw volumes (ml.) are measured by mercury plethysmograph on day 0 or at the time of injection of the complete adjuvant. Increases in paw volume (viz. edema) are determined for both paws on days 4 and 16. The change in body weight from day 0 to day 16 is also calculated. Statistical analysis of differences in paw edemas and body weight is performed by using the unpaired. Student's t-test.
The changes in left paw edema are measured at the end of 19 days, 23 days and 30 days.

[6] = test system: prostaglandin synthesis in gastric mucosa; conditions: background; in words; cited from earlier work
[7] = test system: rat stomach (gastric ulcers, gastric swelling); format: in vivo, rat (male Charles River, Sprague-Dawley); conditions: for Number of Animals With Gastric Swelling / Number of Animals With Gastric Ulcers: rat, 4 hours after dosing
Protocol: The rats are divided into groups 6-10 and dosed by the oral route with test compound, on a mg/kg. body weight basis, or vehicle control, 0.5% carboxymethylcellulose, in a volume of 3 ml. per rat. Four hours after dosing, the rats are decapitated and exsanguinated. Stomachs are removed and examined for gastric swelling and then opened and washed for visual inspection of gastric ulcers. Only one lesion or gastric bleeding is necessary for a positive response. Data is reported quantally.

[8] = test system: polyarthritis induced by Mycobacterium butyricum or tuberculosis in rats; conditions: rat; for % Change of Left Paw Edema at Day 16 / % Change of Right Paw Edema at Day 4 / Change In Body Weight (mean ± S.E.) 0-16 days / Increase in Left Paw Volume (ml.) 0-16 days / Increase in Right Paw Volume (ml.) 0-4 days: Table 3 group a; for Increase in Left Paw Volume (ml.) 0-16 days / Increase in Right Paw Volume (ml.) 0-4 days: mean ± S.E.
Protocol: as §2

[9] = Adrenalectomized Rats, oral 300 mg/kg
[10] = oral 270 mg/kg, Table 1 group d
[11] = oral 0.33 mg/kg, days 16, 17, 18
[12] = oral 1.00 mg/kg, days 16, 17, 18
[13] = oral 3.00 mg/kg, days 16, 17, 18
[14] = Adrenalectomized Rats, oral 5 mg/kg
[15] = oral 180 mg/kg, Table 1 group e

## CC(=O)Oc1ccccc1C(=O)O [Aspirin, aspirin, reference compound]
[1]; [9]
  % Inhibition: 34%
  Edema (ml) ± S.E.: 0.64 ± .04 mL
[1]; Adrenalectomized Rats, oral 300 mg/kg, footnote a
  animals died: 1/6
[1]; Normal Rats, oral 300 mg/kg
  % Inhibition: 44%
  Mean Edema (ml) ± S.E.: 0.52 ± .07 mL
[2]; oral
  estimated ED50 (carrageenan paw edema): ~110 mg/kg
[2]; oral 30 mg/kg, Table 1 group d
  Change in paw volume (ml) from 0-3 hr: 0.63 ± 0.02 mL
  % Change in paw edema: -28%
[2]; oral 90 mg/kg, Table 1 group d
  Change in paw volume (ml) from 0-3 hr: 0.54 ± 0.04 mL
  % Change in paw edema: -39%
[2]; [10]
  Change in paw volume (ml) from 0-3 hr: 0.29 ± 0.10 mL
  % Change in paw edema: -67%
Prostaglandin synthetase
  appreciable effects on prostaglandin synthetase activity: appreciable effects on prostaglandin synthetase activity
[3]
  gastric ulcerogenicity: proven gastric ulcerogens
[4]
  ED50 (adjuvant arthritis test), has been assessed: approximately 140 mg/kg

## COc1ccc2c(c1)c(CC(=O)O)c(C)n2C(=O)c1ccc(Cl)cc1 [Indomethacin, indomethacin, reference compound]
[5]; 3.00 mg/kg, days 16, 17 and 18
  rats died by the 23rd day: six out of ten rats had died
[5]; [11]
  % Change from Control, left paw edema (day 0-19): -31%
  % Change from Control, left paw edema (day 0-23): +6%
  % Change from Control, left paw edema (day 0-30): -6%
  Increase in left paw edema ml. (day 0-19): 0.70 ± 0.11 mL
  Increase in left paw edema ml. (day 0-23): 1.02 ± 0.14 mL
  Increase in left paw edema ml. (day 0-30): 1.41 ± 0.20 mL
[5]; [12]
  % Change from Control, left paw edema (day 0-19): -40%
  % Change from Control, left paw edema (day 0-23): +4%
  % Change from Control, left paw edema (day 0-30): -22%
  Increase in left paw edema ml. (day 0-19): 0.62 ± 0.05 mL
  Increase in left paw edema ml. (day 0-23): 1.00 ± 0.06 mL
  Increase in left paw edema ml. (day 0-30): 1.18 ± 0.10 mL
[5]; [13]
  % Change from Control, left paw edema (day 0-19): -60%
  Increase in left paw edema ml. (day 0-19): 0.41 ± 0.06 mL
  deaths (day 0-23): 6/10
  deaths (day 0-30): 6/10
[1]; [14]
  % Inhibition: 59%
  Edema (ml) ± S.E.: 0.42 ± .09 mL
[1]; Normal Rats, oral 5 mg/kg
  % Inhibition: 60%
  Mean Edema (ml) ± S.E.: 0.42 ± .09 mL
[2]; oral
  estimated ED50 (carrageenan paw edema): ~2.7 mg/kg
[2]; oral 1 mg/kg, Table 1 group b
  Change in paw volume (ml) from 0-3 hr: 0.65 ± 0.06 mL
  % Change in paw edema: -36%
[2]; oral 3 mg/kg, Table 1 group b
  Change in paw volume (ml) from 0-3 hr: 0.50 ± 0.07 mL
  % Change in paw edema: -51%
[2]; oral 5 mg/kg, Table 1 group e
  Change in paw volume (ml) from 0-3 hr: 0.54 ± 0.08 mL
  % Change in paw edema: -53%
[2]; oral 9 mg/kg, Table 1 group b
  Change in paw volume (ml) from 0-3 hr: 0.32 ± 0.02 mL
  % Change in paw edema: -69%
Prostaglandin synthetase
  appreciable effects on prostaglandin synthetase activity: appreciable effects on prostaglandin synthetase activity
[6]
  inhibitory effect on prostaglandin synthesis in gastric mucosa: marked inhibitory effect on prostaglandin synthesis in gastric mucosa
[7]; dosage levels indicated for treatment of inflammatory conditions
  effects on the gastric tract: significant effects on the gastric tract
[7]; oral 2.5 mg/kg
  Number of Animals With Gastric Swelling: 0/10
  Number of Animals With Gastric Ulcers: 0/9
[7]; oral 5.0 mg/kg
  Number of Animals With Gastric Swelling: 0/10
  Number of Animals With Gastric Ulcers: 9/10
[7]; oral 10.0 mg/kg
  Number of Animals With Gastric Swelling: 0/10
  Number of Animals With Gastric Ulcers: 10/10
[3]
  gastric ulcerogenicity: proven gastric ulcerogens
[8]; oral 0.1 mg/kg daily
  % Change of Left Paw Edema at Day 16: +5.1%
  % Change of Right Paw Edema at Day 4: -31%
  Change In Body Weight (mean ± S.E.) 0-16 days: 16.9 ± 9.0
  Increase in Left Paw Volume (ml.) 0-16 days: 0.82 ± .12 mL
  Increase in Right Paw Volume (ml.) 0-4 days: 1.07 ± .15 mL
[8]; oral 0.3 mg/kg daily
  % Change of Left Paw Edema at Day 16: -33%
  % Change of Right Paw Edema at Day 4: -30%
  Change In Body Weight (mean ± S.E.) 0-16 days: 25.7 ± 7.8
  Increase in Left Paw Volume (ml.) 0-16 days: 0.52 ± .07 mL
  Increase in Right Paw Volume (ml.) 0-4 days: 1.09 ± .06 mL
[8]; oral 1.0 mg/kg daily
  % Change of Left Paw Edema at Day 16: -55%
  % Change of Right Paw Edema at Day 4: -42%
  Change In Body Weight (mean ± S.E.) 0-16 days: 36.5 ± 7.9
  Increase in Left Paw Volume (ml.) 0-16 days: 0.35 ± .03 mL
  Increase in Right Paw Volume (ml.) 0-4 days: 0.90 ± .11 mL
[8]; oral 3.0 mg/kg daily
  % Change of Left Paw Edema at Day 16: -65%
  % Change of Right Paw Edema at Day 4: -37%
  Change In Body Weight (mean ± S.E.) 0-16 days: 49.8 ± 6.2
  Increase in Left Paw Volume (ml.) 0-16 days: 0.27 ± .03 mL
  Increase in Right Paw Volume (ml.) 0-4 days: 0.99 ± .05 mL
[8]; oral, daily
  estimated ED50 (adjuvant arthritis test): ~0.9 mg/kg

## CCOC(=O)C=C1c2ccccc2C=Cc2ccccc21 [EDCHA, ethyl(5H-dibenzo[a,d]cyclohepten-5-ylidene)acetate]
[2]; oral
  oral doses that inhibit carrageenan paw edema: 10 to 180 mg/kg
[2]; oral 20 mg/kg, Table 1 group e
  Change in paw volume (ml) from 0-3 hr: 1.11 ± 0.08 mL
  % Change in paw edema: -4%
[2]; oral 60 mg/kg, Table 1 group e
  Change in paw volume (ml) from 0-3 hr: 0.98 ± 0.06 mL
  % Change in paw edema: -15%
[2]; [15]
  Change in paw volume (ml) from 0-3 hr: 0.87 ± 0.04 mL
  % Change in paw edema: -25%
